Measured values as given in ChEMBL document CHEMBL3769388, “Optimization of a Dicarboxylic Series for in Vivo Inhibition of Citrate Transport by the Solute Carrier 13 (SLC13) Family” (J Med Chem, 2016).
Values belong to the compound of their own block, whether it stands above or below them.

How the values were obtained:
[1] = Clearance in human hepatocytes assessed per 10^6 cells; format: ADME, cell-based, Hepatocyte; settings: read-out: CLH
[2] = Renal clearance in Wistar Han rat at 1 mg/kg, iv by LC-MS/MS analysis; format: ADME, organism-based, Kidney; settings: in vivo
[3] = molecular target: T1, Solute carrier family 13 member 2 (Homo sapiens, UniProt Q13183); test: Inhibition of NaDC1 (unknown origin) expressed in HEK293 cells assessed as inhibition of [14C]citrate uptake by microbeta plate reader analysis; format: cell-based; settings: read-out: IC50
T1 sequence (Q13183 whole entry): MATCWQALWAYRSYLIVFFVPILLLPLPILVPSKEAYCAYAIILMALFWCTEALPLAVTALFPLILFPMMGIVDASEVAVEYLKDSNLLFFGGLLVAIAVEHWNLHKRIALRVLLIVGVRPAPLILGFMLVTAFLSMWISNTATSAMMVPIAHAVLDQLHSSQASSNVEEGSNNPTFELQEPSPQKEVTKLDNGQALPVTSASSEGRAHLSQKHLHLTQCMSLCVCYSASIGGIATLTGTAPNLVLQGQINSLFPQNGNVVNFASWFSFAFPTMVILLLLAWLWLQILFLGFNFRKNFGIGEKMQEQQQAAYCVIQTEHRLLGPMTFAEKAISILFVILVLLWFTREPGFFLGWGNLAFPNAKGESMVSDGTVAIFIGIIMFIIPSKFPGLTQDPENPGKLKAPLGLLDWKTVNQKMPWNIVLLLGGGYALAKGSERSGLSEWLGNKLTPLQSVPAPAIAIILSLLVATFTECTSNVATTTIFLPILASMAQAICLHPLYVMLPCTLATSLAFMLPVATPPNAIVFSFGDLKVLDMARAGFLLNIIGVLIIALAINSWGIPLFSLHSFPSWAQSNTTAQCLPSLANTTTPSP

[4] = Total plasma clearance in Wistar Han rat at 1 mg/kg, iv by LC-MS/MS analysis; format: ADME, organism-based
[5] = Volume of distribution at steady state in Wistar Han rat at 1 mg/kg, iv by LC-MS/MS analysis; format: ADME, organism-based; settings: in vivo, read-out: Vdss
[6] = Passive permeability in MDCK cells; format: ADME, cell-based, Canis lupus familiaris; settings: dog
[7] = Fraction unbound in Wistar Han rat by equilibrium dialysis method; format: ADME
[8] = Half life in Wistar Han rat at 1 mg/kg, iv by LC-MS/MS analysis; format: ADME, organism-based; settings: in vivo
[9] = AUC(0 to t) in Wistar Han rat at 5 mg/kg, po by LC-MS/MS analysis; format: ADME, organism-based; settings: in vivo
[10] = molecular target: T2, Na(+)/citrate cotransporter (Homo sapiens, UniProt Q86YT5); test: Inhibition of NaCT (unknown origin) expressed in HEK293 cells assessed as inhibition of [14C]citrate uptake by microbeta plate reader analysis; format: cell-based
[11] = molecular target: T2, Na(+)/citrate cotransporter; test: Inhibition of NaCT in human hepatocytes assessed as [14C]-citrate uptake after 30 mins by scintillation counting method; format: cell-based, Hepatocyte

T2 sequence (Q86YT5 whole entry): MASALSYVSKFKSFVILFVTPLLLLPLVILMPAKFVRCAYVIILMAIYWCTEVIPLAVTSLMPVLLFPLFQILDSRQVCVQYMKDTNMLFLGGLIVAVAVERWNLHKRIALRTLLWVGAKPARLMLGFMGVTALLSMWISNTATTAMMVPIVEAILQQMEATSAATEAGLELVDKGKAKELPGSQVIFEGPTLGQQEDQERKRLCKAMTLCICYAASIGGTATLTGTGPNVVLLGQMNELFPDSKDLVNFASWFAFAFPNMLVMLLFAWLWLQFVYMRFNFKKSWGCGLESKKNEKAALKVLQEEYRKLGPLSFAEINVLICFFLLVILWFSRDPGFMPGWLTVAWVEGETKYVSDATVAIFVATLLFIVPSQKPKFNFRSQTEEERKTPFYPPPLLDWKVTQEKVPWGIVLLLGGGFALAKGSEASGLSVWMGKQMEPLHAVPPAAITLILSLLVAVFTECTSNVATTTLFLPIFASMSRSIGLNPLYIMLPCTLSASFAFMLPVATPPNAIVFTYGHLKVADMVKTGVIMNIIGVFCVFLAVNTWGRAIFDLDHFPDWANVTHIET

- IC50 ([10]; read-out: IC50): 190 nM
SMILES: CCOc1ncc(C)cc1CCC(O)(CC(=O)O)C(=O)O (racemic)

- IC50 ([10]; read-out: IC50): 110 nM
SMILES: CCOc1ncccc1CCC(O)(CC(=O)O)C(=O)O (racemic)

- IC50 [11]: 330 nM
- CL renal [2]: 1.8 mL/min/kg
- clearance [4]: 6.7 mL/min/kg
- Vd [5]: 0.13 L/kg
- IC50 ([10]; read-out: IC50): 110 nM
- fraction unbound [7]: 0.086
- half-life [8]: 0.9 h
- AUC(0-t) [9]: 2650 ng·h/mL
SMILES: CCOc1ncccc1CC[C@@](O)(CC(=O)O)C(=O)O

- IC50 [11]: > 30000 nM
- IC50 ([10]; read-out: IC50): > 25000 nM
SMILES: CCOc1ncccc1CC[C@](O)(CC(=O)O)C(=O)O

- IC50 ([10]; read-out: IC50): 330 nM
SMILES: CC(C)Oc1ncccc1CCC(O)(CC(=O)O)C(=O)O (racemic)

- IC50 ([10]; read-out: IC50): 650 nM
- IC50 ([10]; read-out: pIC50 (converted)): 316 nM
SMILES: COc1ncc(C)cc1CCC(O)(CC(=O)O)C(=O)O (racemic)

- IC50 ([10]; read-out: IC50): 3370 nM
SMILES: COc1ncccc1CCC(O)(CC(=O)O)C(=O)O (racemic)

The remaining lines, values behind:

SMILES: CC(C)(C)c1ccc(CC[C@@](O)(CC(=O)O)C(=O)O)cc1
- hepatocyte CLint [1]: < 6 µL/min/1e6 cells
- CL renal [2]: 0.5 mL/min/kg
- IC50 [3]: > 100000 nM
- clearance [4]: 4.5 mL/min/kg
- Vd [5]: 0.24 L/kg
- Papp [6]: 1 ×10⁻⁶ cm/s
- fraction unbound [7]: 0.054
- half-life [8]: 1 h
- AUC(0-t) [9]: 2570 ng·h/mL

SMILES: CC(C)(C)c1ccc(CCC(O)(CC(=O)O)C(=O)O)cc1 (racemic)
- CL renal [2]: 1.9 mL/min/kg
- clearance [4]: 8.5 mL/min/kg
- Vd [5]: 0.45 L/kg
- fraction unbound [7]: 0.073
- half-life [8]: 1.2 h
- AUC(0-t) [9]: 1850 ng·h/mL

SMILES: COc1ncc(C)cc1CC[C@](O)(CC(=O)O)C(=O)O
- CL renal [2]: 2.8 mL/min/kg
- clearance [4]: 9.9 mL/min/kg
- Vd [5]: 0.2 L/kg
- IC50 ([10]; read-out: IC50): > 18000 nM
- fraction unbound [7]: 0.058
- half-life [8]: 1 h
- AUC(0-t) [9]: 499 ng·h/mL

SMILES: COc1ccc(C)cc1CCC(O)(CC(=O)O)C(=O)O (racemic)
- IC50 ([10]; read-out: IC50): 1650 nM

SMILES: O=C(O)CC(O)(CCc1ccccc1)C(=O)O (racemic)
- IC50 ([10]; read-out: IC50): > 17000 nM
